{
  "source": "paper PMC4273223",
  "about": "“(2R,1'S,2'R)- and (2S,1'S,2'R)-3-[2-Mono(di,tri)fluoromethylcyclopropyl]alanines and their incorporation into hormaomycin analogues” (Beilstein Journal of Organic Chemistry, 2014)",
  "key": {"[1]": {"tested_on": "Plasmodium falciparum strain K1", "assay": "microbe, parasite or virus in culture", "description": "(§1) The syntheses of hormaomycin (1) itself and of its all-peptide aza-analogues 60 and 61 (Figure 6) as developed by Zlatopolskiy et al., were reproduced in order to provide large enough quantities for biological tests of their antimalarial activities.\n(§2) In vitro antiprotozoal activity assays: The in vitro activities against the protozoan parasites L. donovani and P. falciparum as well as cytotoxicity assessments against L6 cells were determined as reported elsewhere."}, "[2]": {"tested_on": "Leishmania donovani strain MHOM-ET-67/L82", "assay": "microbe, parasite or virus in culture", "conditions": "for activity against L. donovani (in words): in vitro", "description": "as §1, §2"}, "L6 cells": {"tested_on": "L6 cells", "assay": "cells", "description": "as §2"}, "[3]": {"set-up": "method as in PMID 12760691", "conditions": "cited from earlier work"}, "coryneform bacteria": {"tested_on": "coryneform bacteria", "set-up": "method as in doi:10.1002/hlca.19890720303, doi:10.1002/ange.19901020122", "conditions": "cited from earlier work"}},
  "note": "Where a name gives a salt, the structure may show the parent alone. Starred links: 1 amine or outer side, 2 acyl side, 3 side chain; linkers in the order of their positions; H or OH if unused. Positions of bridges follow the written chain, without caps; N, C: chain ends. Non-standard residues stand in square brackets, D forms with d. Residues, ends and D or L forms follow the SMILES beside them. *: point of attachment. X1 = O=C([C@@H](C[C@@H]1C[C@H]1C(F)(F)F)N[*:1])[*:2]; X2 = C/C=C\\[C@H]1C[C@@H](C(=O)[*:2])N([*:1])C1; Phe(3R-Me) = C[C@H](c1ccccc1)[C@H](N)C(=O)O; d(aThr) = C[C@@H](O)[C@@H](N)C(=O)O; Tfa = O=C(C(F)(F)F)*",
  "data": [
    {"molecule": "C/C=C\\[C@H]1C[C@H]2C(=O)O[C@H](C)[C@@H](NC(=O)[C@H](C[C@@H]3C[C@H]3C(F)(F)F)NC(=O)c3ccc(Cl)n3O)C(=O)N[C@@H]([C@H](C)c3ccccc3)C(=O)N[C@H](C[C@@H]3C[C@H]3C(F)(F)F)C(=O)N[C@@H]([C@H](C)c3ccccc3)C(=O)N[C@@H]([C@@H](C)CC)C(=O)N2C1", "note": "[Compound 8a]", "values": [
      {"measurement": "IC50 against Plasmodium falciparum strain K1", "setting": "[1]", "value": 0.183, "unit": "µg/mL"},
      {"measurement": "IC50 against Leishmania donovani strain MHOM-ET-67/L82", "setting": "[2]", "value": 0.205, "unit": "µg/mL"},
      {"measurement": "activity against L. donovani (in words)", "setting": "[2]", "value": "showed an activity against L. donovani"},
      {"measurement": "activity against L. donovani lower than that of hormaomycin (1)", "setting": "[2]; relative to hormaomycin (1)", "value": 37, "unit": "%"},
      {"measurement": "IC50 against L6 cells", "setting": "L6 cells", "value": 40, "unit": "µg/mL"}
    ]},
    {"molecule": "CCN(CC)CCCC(C)Nc1ccnc2cc(Cl)ccc12", "note": "(stereo not shown) [Chloroquine, reference compound]", "values": [
      {"measurement": "IC50", "setting": "[1]; Plasmodium falciparum, K1, read-out: IC50 against Plasmodium falciparum strain K1", "value": 0.089, "unit": "µg/mL"}
    ]},
    {"molecule": "CCCCCCCCCCCCCCCCOP(=O)([O-])OCC[N+](C)(C)C", "note": "[Miltefosine, reference compound]", "values": [
      {"measurement": "IC50", "setting": "[2]; Leishmania donovani, read-out: IC50 against Leishmania donovani strain MHOM-ET-67/L82", "value": 0.143, "unit": "µg/mL"}
    ]},
    {"molecule": "C/C=C\\[C@H]1C[C@H]2C(=O)NC[C@@H](NC(=O)OCc3ccc(C)cc3)C(=O)N[C@@H]([C@H](C)c3ccccc3)C(=O)N[C@H](C[C@@H]3C[C@H]3[N+](=O)[O-])C(=O)N[C@@H]([C@H](C)c3ccccc3)C(=O)N[C@@H]([C@@H](C)CC)C(=O)N2C1", "note": "[Compound 61]", "values": [
      {"measurement": "IC50 against Plasmodium falciparum strain K1", "setting": "[1]", "value": 0.061, "unit": "µg/mL"}
    ]},
    {"molecule": "C/C=C\\[C@H]1C[C@H]2C(=O)O[C@H](C)[C@@H](NC(=O)[C@H](C[C@@H]3C[C@H]3[N+](=O)[O-])NC(=O)c3ccc(Cl)n3O)C(=O)N[C@@H]([C@H](C)c3ccccc3)C(=O)N[C@H](C[C@@H]3C[C@H]3[N+](=O)[O-])C(=O)N[C@@H]([C@H](C)c3ccccc3)C(=O)N[C@@H]([C@@H](C)CC)C(=O)N2C1", "note": "[Compound 1, hormaomycin]", "values": [
      {"measurement": "antimalarial activity (in words)", "setting": "[3]", "value": "interesting antimalarial activity"},
      {"measurement": "antimalarial activity (in words)", "setting": "[1]; in vitro", "value": "good and selective antimalarial activities"},
      {"measurement": "activity against L. donovani (in words)", "setting": "[2]", "value": "showed an activity against L. donovani"},
      {"measurement": "inhibitory effect on coryneform bacteria (in words)", "setting": "coryneform bacteria", "value": "exceptionally selective inhibitory effect"}
    ]},
    {"molecule": "C/C=C\\[C@H]1C[C@H]2C(=O)O[C@H](C)[C@@H](NC(C)=O)C(=O)N[C@@H]([C@H](C)c3ccccc3)C(=O)N[C@H](C[C@@H]3C[C@H]3C(F)(F)F)C(=O)N[C@@H]([C@H](C)c3ccccc3)C(=O)N[C@@H]([C@@H](C)CC)C(=O)N2C1", "note": "[Compound 58] (Ac-[d(aThr)][Phe(3R-Me)][X1][Phe(3R-Me)]I[X2]; ester 1-C)", "values": [
      {"measurement": "IC50 against Plasmodium falciparum strain K1", "setting": "[1]", "value": 0.151, "unit": "µg/mL"},
      {"measurement": "IC50 against Leishmania donovani strain MHOM-ET-67/L82", "setting": "[2]", "value": 1.73, "unit": "µg/mL"},
      {"measurement": "IC50 against L6 cells", "setting": "L6 cells", "value": ">90", "unit": "µg/mL"}
    ]},
    {"molecule": "COc1cc([C@@H]2c3cc4c(cc3[C@H](O)[C@H]3COC(=O)[C@H]23)OCO4)cc(OC)c1OC", "note": "[Podophyllotoxin, reference compound]", "values": [
      {"measurement": "IC50", "setting": "L6 cells; Rattus norvegicus, L6, read-out: IC50 against L6 cells", "value": 0.006, "unit": "µg/mL"}
    ]},
    {"molecule": "C/C=C\\[C@H]1C[C@H]2C(=O)O[C@H](C)[C@@H](NC(=O)OCc3ccc(C)cc3)C(=O)N[C@@H]([C@H](C)c3ccccc3)C(=O)N[C@H](C[C@@H]3C[C@H]3C(F)(F)F)C(=O)N[C@@H]([C@H](C)c3ccccc3)C(=O)N[C@@H]([C@@H](C)CC)C(=O)N2C1", "note": "[Compound 52a]", "values": [
      {"measurement": "IC50 against Plasmodium falciparum strain K1", "setting": "[1]", "value": 0.042, "unit": "µg/mL"},
      {"measurement": "IC50 against Leishmania donovani strain MHOM-ET-67/L82", "setting": "[2]", "value": 2.13, "unit": "µg/mL"},
      {"measurement": "IC50 against L6 cells", "setting": "L6 cells", "value": ">90", "unit": "µg/mL"}
    ]},
    {"molecule": "C/C=C\\[C@H]1C[C@H]2C(=O)O[C@H](C)[C@@H](NC(=O)C(F)(F)F)C(=O)N[C@@H]([C@H](C)c3ccccc3)C(=O)N[C@H](C[C@@H]3C[C@H]3C(F)(F)F)C(=O)N[C@@H]([C@H](C)c3ccccc3)C(=O)N[C@@H]([C@@H](C)CC)C(=O)N2C1", "note": "[Compound 59] (Tfa-[d(aThr)][Phe(3R-Me)][X1][Phe(3R-Me)]I[X2]; ester 1-C)", "values": [
      {"measurement": "IC50 against Plasmodium falciparum strain K1", "setting": "[1]", "value": 0.265, "unit": "µg/mL"},
      {"measurement": "IC50 against Leishmania donovani strain MHOM-ET-67/L82", "setting": "[2]", "value": 2.37, "unit": "µg/mL"},
      {"measurement": "IC50 against L6 cells", "setting": "L6 cells", "value": ">90", "unit": "µg/mL"}
    ]}
  ]
}
